Measured values taken from publication PMC5842505, “Allosteric Inhibition of Serotonin 5-HT7 Receptors by Zinc Ions” (Molecular Neurobiology, 2017).
Read-outs that look alike come from different tables or passages of the source. Blank lines part the entries; values can stand above or below the compound they belong to.

Assays:
[1] = target: T1, human 5-HT7 receptor (Homo sapiens, UniProt P34969); experiment: Screen of monovalent and divalent cations on radioligand binding; details: for decrease in radioligand binding relative to the control: higher cation concentration (5 mM)
Description: Non-specific binding was defined by the binding obtained in the presence of 10 μM 5-HT. The incubation buffer consisted of 50 mM Tris–HCl (pH 7.7), 4 mM MgCl2, 10 μM pargyline, and 0.1% ascorbic acid. The binding reactions were stopped by filtration through GF/B UniFilter plates using a harvester (PerkinElmer). The plate filters were then dried, and 20 μl of Ultima Gold MV (PerkinElmer) was added. Radioactivity was measured using a MicroBeta TriLux counter (PerkinElmer).
Initially, different monovalent and divalent cations (Na^+, K^+, Mg^2+, Ca^2+, and Zn^2+) were screened at concentrations of 500 μM and 5 mM to assess whether they had any effects on the 5-HT7 receptor (Fig. 1).
The binding of radioligands in the absence of the tested cations is referred to as basal specific binding and was set to 100% (dotted line)

[2] = test system: 5-HT1A receptor; parameters: method as in PMID 26660328; details: cited from earlier work
[3] = target: T1, human 5-HT7 receptor; experiment: Saturation radioligand binding in the absence and presence of Zn2+; parameters: The full-length human 5-HT7b receptor complementary DNA (cDNA); details: non-linear regression, Eq. 1
Description: (§1) HEK293 cells stably expressing the human 5-HT7b receptor were grown in Dulbecco’s Modified Eagle’s Medium (DMEM) (Lonza, Basel, Switzerland) supplemented with 10% dialyzed fetal bovine serum (FBS) (Lonza) and 500 μg/ml G418 sulfate (Sigma-Aldrich) at 37 °C in a humidified atmosphere with 5% CO2. For the membrane preparations, the cells were sub-cultured in 150-cm^2 flasks, grown to 90% confluence, washed twice with phosphate-buffered saline (PBS) pre-warmed to 37 °C, and pelleted by centrifugation (200×g for 5 min) in PBS containing 0.1 mM ethylenediaminetetraacetic acid (EDTA) and 1 mM dithiothreitol (DTT). Prior to the membrane preparation, the pellets were frozen at −80 °C. For the functional experiments, the cells were sub-cultured in 75-cm^2 flasks, grown to 90% confluence, washed twice with PBS pre-warmed to 37 °C, and pelleted by centrifugation (180×g) in PBS containing 0.5 mM EDTA. The supernatant was aspirated, and the cell pellet was resuspended in stimulation buffer (1× HBSS, 5 mM HEPES, 0.5 mM IBMX, 0.1% BSA).
(§2) Cell pellets were thawed and homogenized in 10 volumes of 50 mM Tris–HCl buffer (pH 7.7) containing 0.1 mM EDTA, using an Ultra Turrax tissue homogenizer. The pellets were centrifuged twice at 35,000×g for 20 min at 4 °C, with 15-min incubation at 37 °C between centrifugations. The pellets were then resuspended in the incubation buffer as described below for the radioligand binding assays. The membrane protein concentrations were determined using the Pierce™ Coomassie (Bradford) Protein Assay Kit (Thermo Fisher Scientific, Waltham, USA), with bovine serum albumin (BSA) as the standard.
(§3) Data from the saturation (K D), competition binding (K i), and kinetic experiments (koff/offobs) were fitted to a one- or two-site model, and the models were compared using an F test (extra sum-of-squares test).

[4] = target: T2, human 5-HT7b receptor (Homo sapiens, UniProt P34969); experiment: LANCE cAMP functional assay in HEK293 cells expressing the 5-HT7 receptor; format: cell-based; details: for effect on constitutive (unstimulated cAMP) activity: constitutively active 5-HT7 HEK293 cell line; for K B: antagonist vs 10 nM 5-CT
T2 construct: The full-length human 5-HT7b receptor complementary DNA (cDNA)
Description: as §1
Each compound was tested at eight concentrations ranging from 0.01 nM to 100 μM. The total level of cAMP was measured using the LANCE cAMP detection kit (PerkinElmer) according to the manufacturer’s recommendations. To quantify the cAMP levels, 200 or 1000 (for measuring constitutive activity) cells/well (5 μl) were incubated with compounds (5 μl) for 30 min at room temperature in a 384-well white opaque microtiter plate. After incubation, 10 μl of the working solution (5 μl Eu-cAMP and 5 μl ULight-anti-cAMP) was added to induce cell lysis and terminate the reaction. The assay plate was incubated for 1 h at room temperature. The time-resolved fluorescence resonance energy transfer (TR-FRET) signal was detected using an Infinite M1000 PRO (Tecan, Männedorf, Switzerland) with instrument settings from the LANCE cAMP detection kit manual.
The derivation of the Cheng–Prusoff equation was applied for the analysis of antagonist functional inhibition curves

[5] = test system: HEK293 cells; details: 30-min exposure, MTT and LDH tests
Description: To estimate potential ZnCl2-induced cell death, a colorimetric method was applied in which the amount of formazan salt that had formed after the conversion of lactate to pyruvate followed by the reduction of tetrazolium salt was proportional to the lactate dehydrogenase (LDH) activity in the sample. All procedures were conducted according to the manufacturer’s protocol (Pierce LDH Cytotoxicity Assay Kit, Thermo Fisher Scientific, Waltham, Massachusetts, USA). In brief, the level of LDH released from damaged cells into the culture medium was measured after a 30-min exposure to different concentrations of ZnCl2 in 96-well plates. Cell-free culture supernatants were collected from each well and incubated with the appropriate substrate mix at RT for 30 min. The intensity of the red color formed in the assay and measured at a wavelength of 490 nm was proportional to the LDH activity and the number of damaged cells. The data were normalized to the activity of LDH released from lysis buffer-treated cells (100%) and expressed as a percent of the total ± SEM from three separate experiments.
The yellow tetrazolium 3-(4,5-dimethylthiazolyl-2)-2,5-diphenyltetrazolium bromide (MTT) is reduced by metabolically active cells, by the action of dehydrogenase enzymes, generating NADH and NADPH. The resulting intracellular purple formazan is then solubilized and quantified by spectrophotometry. […]

[6] = target: T1, human 5-HT7 receptor; experiment: Competition radioligand binding (orthosteric ligands ± Zn2+; Zn2+ titration curves); parameters: The full-length human 5-HT7b receptor complementary DNA (cDNA); details: read-out: IC50 for inhibiting radioligand binding
Description: as §2, §3
For the competition binding assay, the affinity constant values (K i) were calculated using the Cheng–Prusoff equation (Eq. 2): […]

[7] = test system: muscarinic M2 receptor; parameters: method as in PMID 17009927; details: cited from earlier work
[8] = cation at both concentrations, 500 μM and 5 mM

T1 sequence (P34969 1-432 limits assumed): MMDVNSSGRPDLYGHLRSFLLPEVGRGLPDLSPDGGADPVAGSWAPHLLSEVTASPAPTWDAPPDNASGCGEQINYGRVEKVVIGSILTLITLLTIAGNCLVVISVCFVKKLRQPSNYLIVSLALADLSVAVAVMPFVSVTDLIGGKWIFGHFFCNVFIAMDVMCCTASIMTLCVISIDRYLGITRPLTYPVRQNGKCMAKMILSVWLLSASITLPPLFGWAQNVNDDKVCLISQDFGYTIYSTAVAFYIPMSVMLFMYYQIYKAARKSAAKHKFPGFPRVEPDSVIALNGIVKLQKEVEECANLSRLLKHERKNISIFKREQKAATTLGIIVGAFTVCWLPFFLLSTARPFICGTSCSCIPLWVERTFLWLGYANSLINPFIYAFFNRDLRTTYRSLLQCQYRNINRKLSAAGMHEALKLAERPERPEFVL
T2 sequence (P34969 1-432 limits assumed): as above

Compound: [Cl-].[Cl-].[Zn+2] [Zn^2+, ZnCl2]
effect on the level of [3H]SB-269970 binding ([1]; cation 500 μM): did not influence | reduction of [3H]5-CT binding ([1]; cation 500 μM): 67% | reduction of [3H]mesulergine binding ([1]; cation 500 μM): 55% | decrease in radioligand binding relative to the control [1]: up to 90% | effect on agonist binding ([2]; Zn2+ 10 μM): potentiation | effect on agonist binding ([2]; Zn2+ 500 μM): inhibition | cooperativity factor α ([3]; vs [3H]5-CT binding): 0.15 | cooperativity factor α ([3]; vs [3H]SB-269970 binding): 0.06 | cooperativity factor α ([3]; vs [3H]mesulergine binding): 0.25 | effect on constitutive (unstimulated cAMP) activity [4]: no influence | functional profile ([4]; zinc concentration up to 10 μM): weak neutral antagonist | concentration not affecting the number of living cells [5]: ≤ 200 µM | IC50 ([6]; vs [3H]5-CT at fixed concentration (≤K D)): 346 µM | IC50 ([6]; vs [3H]SB-269970 at fixed concentration (≤K D)): 1170 µM | IC50 ([6]; vs [3H]mesulergine at fixed concentration (≤K D)): 241 µM

Compound: [Na+] [Na^+]
effect on the binding of the three tested radioligands [1, 8]: did not alter

K B ([4]; Zn2+ 0 μM): 31.05 ± 7.51 nM | K B ([4]; Zn2+ 0 μM, listed as mesulergine): 31 nM | K B ([4]; Zn2+ 10 μM): 37.15 ± 6.86 nM | effect on constitutive (unstimulated cAMP) activity [4]: inverse agonistic properties
Compound: CN1C[C@@H](NS(=O)(=O)N(C)C)C[C@@H]2c3cccc4c3c(cn4C)C[C@H]21 [Mesulergine, mesulergine]

effect on the binding of the three tested radioligands [1, 8]: did not alter
Compound: [K+] [K^+]

Compound: [Ca+2] [Ca^2+]
effect on the binding of the three tested radioligands ([1]; cation 500 μM): did not alter | decrease in radioligand binding relative to the control [1]: 10 to 20%

Compound: C=CC[N@@+]12CC[C@@]34c5ccccc5N5/C=C6/[C@H]7C[C@H]8[C@@]9(CC[N@@+]8(CC=C)C/C7=C/CO)c7ccccc7N(/C=C(/[C@@H](C[C@@H]31)/C(=C\CO)C2)[C@H]54)[C@@H]69 [alcuronium]
change in the affinity of acetylcholine (fold) [7]: 10 fold | change in the affinity of arecoline (fold) [7]: 1.7 fold

Compound: [Mg+2] [Mg^2+]
effect on the binding of the three tested radioligands ([1]; cation 500 μM): did not alter | decrease in radioligand binding relative to the control [1]: 10 to 20%
